Results from ChEMBL document CHEMBL1130459, “Conformational preference of the 6-acetyl group in novel anticonvulsant trans 4S-benzamido-benzo[b]pyran-3R-ols” (Bioorg Med Chem Lett, 1997).

What was measured:
Mus musculus [1] = species on record: Mus musculus; test: Compound was evaluated for its binding affinity at the anticonvulsant binding site by displacement of [3H]- SB 204269 from mouse forebrain membranes; parameters: species or system Brain, Membrane
Mus musculus [2] = test: Compound was tested in vivo for anticonvulsant activity in mouse MEST test (maximal electroshock seizure threshold) at a peroral dose of 10 mg/kg; type: functional; conditions: route oral
Mus musculus [3] = test: Compound was tested in vivo for anticonvulsant activity in mouse MEST test (maximal electroshock seizure threshold) at a peroral dose of 30 mg/kg; type: functional; conditions: route oral

Row | SMILES | Log Ki (Mus musculus [1]) | Activity (Mus musculus [2]) | Activity (Mus musculus [3])
1 | CC(=O)c1ccc2c(c1C)[C@H](NC(=O)c1ccc(F)cc1)[C@@H](O)C(C)(C)O2 | -5.02 | – | –
2 | CC(=O)c1ccc2c(c1)[C@H](NC(=O)c1ccc(F)c(Cl)c1)[C@@H](O)C(C)(C)O2 | -7.91 | 138% | –
3 | CC(=O)c1cc2c(cc1C)OC(C)(C)[C@H](O)[C@H]2NC(=O)c1ccc(F)cc1 | -6.15 | – | –
4 | CC1(C)Oc2ccc3c(c2[C@H](NC(=O)c2ccc(F)cc2)[C@H]1O)CCCC3=O | < -5 | – | –
5 | CC1(C)Oc2cc3c(cc2[C@H](NC(=O)c2ccc(F)c(Cl)c2)[C@H]1O)C(=O)CCC3 | -7.6 | – | 98%
6 | CC(=O)c1ccc2c(c1)[C@H](NC(=O)c1ccc(F)cc1)[C@@H](O)C(C)(C)O2 [CARABERSAT] | -7.32 | – | –
